Laboratory results reported in patent publication US20060058383A1 (priority 2004, published 2006).

Columns and labels:
[1] = tested on: human leukemia HL-60 cell line; experiment: Depletion of cellular ATP pool (PCA extraction, HPLC); type: cell-based
Experimental: (§1) Cells were incubated with the indicated concentrations of S-Glycolycin or 3-BrPA for 12 h. Cellular ATP was extracted by 0.4 N PCA, neutralized with KOH, and quantified by HPLC analysis. […] Incubation of cells with 0.03 mM S-Glycolycin completely depleted cellular ATP in both cell lines, while it required a 10-fold greater concentration (0.3 mM) of 3-BrPA to achieve the same degree of ATP depletion.

[2] = tested on: respiration-deficient subclone HL-60/C6F cells; experiment: as above; type: cell-based, human; details: 12 h incubation
Experimental: as §1

[3] = tested on: HL-60 cells; experiment: Induction of apoptosis, annexin-V/PI flow cytometry; type: cell-based, human; details: 30 μM; 24 h
Experimental: HL-60 cells were incubated with the indicated concentrations of S-Glycolycin or 3-BrPA for 24 h. Apoptosis was measured by double staining with annexin-V and PI, followed by flow cytometry analysis. […] Incubation of HL-60 cells with 30 μM of S-Glycolycin caused more 90% cells to undergo apoptosis in 24 h, whereas the same concentration of 3-BrPA killed less than 20% of the cells within the same time period.

[4] = tested on: BAD phosphorylation (Ser112) in HL-60 cells; experiment: BAD phosphorylation at Ser112, western blot; type: cell-based, human
Experimental: HL-60 cells were incubated with the indicated concentrations of each compound for 3 h. BAD and its phosphorylation at Ser112 were measured by western blot analysis, using the respective antibodies. β-Actin was also blotted as the protein loading control.
A time- and dose-dependent effect of S-Glycolycin on the expression level of pro-apoptotic factor BAD and its phosphorylation at Ser112 is provided in FIG. 18. HL-60 cells were incubated with the indicated concentrations of S-Glycolycin for various times. Total BAD protein and its phosphorylation at Ser112 were measured by western blot analysis using the respective antibodies. β-actin was also blotted as the protein loading control. […] Note that severe ATP depletion can be induced by S-Glycolycin at 30-50 μM, but not at 10 μM (FIG. 15).

[5] = tested on: HL-60/AR cells; experiment: MTT cytotoxicity, drug-resistant clone versus parental cells; type: cell-based, human; details: MTT assay
Experimental: HL-60 cell line and its drug-resistant clone HL-60/AR were incubated with the indicated concentrations of doxorubicin, vincristine, and 3-BrPA for 72 h. Cytotoxicity was measured by MTT assay. […] Based on the teachings provided herein, studies may be performed to determine the sensitivity of HL-60/AR cells to Glycolycin.
Ara-C, a drug commonly used in the frontline treatment of leukemia, was used in parallel experiments. Cytotoxicity was measured by MTT assay.

[6] = tested on: human brain tumor cells (U87MG); experiment: MTT assay, 72 hour incubation; type: cell-based; details: U-87 MG
Experimental: (§2) The effect of Glycolycin on human colon cancer cells (HCT116) and human brain tumor cells (U87MG) were tested using MTT assays for a 72 hour incubation. […] The IC50 value of S-Glycolycin for brain tumor U87MG cells is approximately 30 μM. […] This is of clinical significance, since the majority of human cancers are defective in p53 function and show reduced response to radiotherapy and certain anticancer agents.

[7] = tested on: human colon cancer cells (HCT116); experiment: MTT assay, 72 hour incubation; type: cell-based; details: HCT-116
Experimental: as §2

[8] = tested on: colon cancer cells without p53 expression; experiment: Sensitivity of colon cancer cells without p53; type: cell-based, human; details: separate experiment
Experimental: as §2

[9] = tested on: human colon cancer cells (HCT116); experiment: Colony formation under hypoxic conditions, with radiation; type: cell-based
Description: It is known in the art that under hypoxic conditions, cancer cells become less sensitive to radiation therapy, partially due to up-regulation of expression of survival factors and less generation of free radicals without oxygen. However, under hypoxic conditions cancer cells depend on glycolysis for generation of ATP, which is the essential energy source for repair of the DNA damage caused by radiation. Thus, it is contemplated that Glycolycin can effectively deplete cellular ATP pool under hypoxic conditions and enhance the therapeutic activity of radiation. […] Combination of Glycolycin and radiation almost completely killed all cells plated (up to 200,000 cells/well). Thus, Glycolycin is an effective agent to enhance the effectiveness of radiotherapy.

[10] = tested on: human lymphoma cells (Raji); experiment: Sensitivity under hypoxic versus normoxic conditions, annexin-V/PI assay 24 h; type: cell-based; details: 40 μM
Experimental: (Annexin-V/PI assay, 24 h)
Cancer cells in solid tumors have to adapt to the hypoxia environment due to insufficient blood supply. Under hypoxia conditions, cancer cells use the glycolytic pathway to generate ATP without consuming oxygen. This metabolic adaptation also renders cancer cells relatively resistant to anticancer agents and radiation therapy, partially due to up-regulation of expression of cell survival factors such as HIF-1α. […] However, because under hypoxia condition cancer cells dependent on glycolysis for generation of ATP, it is contemplated that such cancer cells are vulnerable to glycolytic inhibition by Glycolycin. […] Thus, it is envisioned that Glycolycin can be use for effective treatment of many solid tumors, either as a single agent or in combination with other anticancer agents.

[11] = tested on: HL-60 cells with high Bcl-2 expression; experiment: MTT growth inhibition of Bcl-2 transfected cells; type: cell-based, human; details: MTT assay
Experimental: Cell growth inhibition was measured by MTT assay.
Increased expression of the anti-apoptotic molecule Bcl-2 has been associated with drug resistance in cancer cells. The over-expression of Bcl-2 in HL-60 cells was […] against the cytotoxic effect of S-Glycolycin. […] Thus, Glycolycin may be used to overcome drug resistance due to Bcl-2 over expression.

[12] = tested on: parental HL-60 cells; experiment: Effect of glutamine on cytotoxic activity, apoptosis at 24 h; type: cell-based, human; details: 1 mM glutamine for 2 h
Experimental: (§3) The effect of glutamine on the cytotoxic activity of S-Glycolycin in wild-type HL-60 cells and respiration-deficient C6F cells was compared. Parental HL-60 cells were incubated with the indicated concentrations of S-Glycolycin in the presence or absence of 1 mM glutamine for 2 h, washed, and re-cultured in fresh medium. Apoptosis was measured at 24 h. […] In FIG. 26, the respiration-deficient cells (HL-60-C6F) were incubated with the indicated concentrations of S-Glycolycin in the presence or absence of 1 mM glutamine for 2 h, washed, and re-cultured in fresh medium. Apoptosis was measured at 24 h. Thus, glutamine supplement offers some degree of protection for cells with competent mitochondrial function.

[13] = tested on: respiration-deficient C6F cells (HL-60-C6F); experiment: as above; type: cell-based, human; details: 1 mM glutamine for 2 h
Experimental: as §3

[14] = tested on: primary CLL cells; experiment: MTT assay in primary leukemia cells; type: cell-based, human
[15] = tested on: BAD phosphorylation in primary CLL cells; experiment: BAD dephosphorylation in primary leukemia cells, western blot; type: cell-based, human

O=C(O)O.O=C([O-])C(=O)CBr.[Na+] [S-Glycolycin, Sodium 3-bromo-2-oxopropionate carbonic acid]
concentration that completely depleted cellular ATP ([1]; 12 h incubation, HL-60): 0.03 mM
concentration inducing severe ATP depletion ([1]; not at 10 μM): 30 to 50 µM
concentration that completely depleted cellular ATP [2]: 0.03 mM
cells undergoing apoptosis [3]: > 90%
change in BAD / phosphorylation at Ser112 ([4]; 10 μM): did not cause any significant change
change in BAD / phosphorylation at Ser112 ([4]; 50 μM): almost complete dephosphorylation
dephosphorylation of BAD, comparison ([4]; 3 h incubation): more effective than 3-BrPA
sensitivity of HL-60/AR compared to parental HL-60 cells [5]: equally sensitive
IC50 [6]: ~30 µM
IC50 [7]: 5 to 10 µM
sensitivity compared with p53-expressing colon cancer cells [8]: similarly sensitive
reduced colony formation ([9]; 40 μM in combination with radiation (6 Gy), hypoxic conditions): more than 99.9%
sensitivity under hypoxic conditions ([9]; drug alone, hypoxic versus normoxic): more sensitive
sensitivity under hypoxic versus normoxic conditions [10]: significantly more sensitive
sensitivity of Bcl-2 transfected cells compared to transfected control (Neo) [11]: remain sensitive
protection by glutamine from cytotoxic effect [12]: partial protection
protection by glutamine from cytotoxic effect [13]: no protection
killing CLL cells as measured by IC50 values, comparison [14]: more potent than 3-BrPA
BAD dephosphorylation, comparison [15]: more active than 3-BrPA
